The test system of assay [1] is F9. The assay is described as follows: Compound was tested for its ability to induce differentiation of F9 cells as estimated by plasminogen activator secretion (PA). The format is functional, cell-based. The note with it: Mus musculus.
Assay [2] concerns the target T1, Retinoic acid receptor gamma (Homo sapiens, UniProt P13631).
T1 sequence (P13631 whole entry): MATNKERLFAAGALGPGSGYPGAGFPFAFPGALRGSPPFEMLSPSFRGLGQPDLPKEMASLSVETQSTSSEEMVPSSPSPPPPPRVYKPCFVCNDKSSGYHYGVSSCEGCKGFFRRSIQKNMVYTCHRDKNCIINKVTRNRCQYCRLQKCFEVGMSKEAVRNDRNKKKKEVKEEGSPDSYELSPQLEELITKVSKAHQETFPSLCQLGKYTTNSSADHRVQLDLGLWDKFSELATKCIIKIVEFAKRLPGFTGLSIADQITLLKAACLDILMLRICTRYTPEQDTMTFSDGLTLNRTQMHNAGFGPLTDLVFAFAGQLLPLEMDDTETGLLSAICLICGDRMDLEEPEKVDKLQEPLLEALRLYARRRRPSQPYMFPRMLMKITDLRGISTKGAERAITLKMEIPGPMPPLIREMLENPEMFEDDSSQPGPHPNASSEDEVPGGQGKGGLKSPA
The assay can be described thus: Binding affinity towards Retinoic acid receptor gamma.

The target of assay [3] is T2, Retinoic acid receptor beta (Homo sapiens, UniProt P10826).
T2 sequence (P10826 whole entry): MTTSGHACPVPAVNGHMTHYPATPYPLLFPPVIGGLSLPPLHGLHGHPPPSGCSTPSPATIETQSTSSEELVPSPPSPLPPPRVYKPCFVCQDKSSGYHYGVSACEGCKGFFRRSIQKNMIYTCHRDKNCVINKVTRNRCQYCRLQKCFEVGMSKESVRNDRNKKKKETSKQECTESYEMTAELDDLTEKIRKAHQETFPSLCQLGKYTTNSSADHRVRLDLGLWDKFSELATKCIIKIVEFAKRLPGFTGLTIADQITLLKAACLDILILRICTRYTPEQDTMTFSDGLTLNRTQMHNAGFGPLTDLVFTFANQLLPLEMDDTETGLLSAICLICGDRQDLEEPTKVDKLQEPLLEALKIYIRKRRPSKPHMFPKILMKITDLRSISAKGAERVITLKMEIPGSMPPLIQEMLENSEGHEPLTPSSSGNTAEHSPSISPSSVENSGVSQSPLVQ
The assay is described as follows: Binding affinity towards Retinoic acid receptor beta.

In assay [4] the target is T3, Retinoic acid receptor alpha (Homo sapiens, UniProt P10276).
T3 sequence (P10276 whole entry): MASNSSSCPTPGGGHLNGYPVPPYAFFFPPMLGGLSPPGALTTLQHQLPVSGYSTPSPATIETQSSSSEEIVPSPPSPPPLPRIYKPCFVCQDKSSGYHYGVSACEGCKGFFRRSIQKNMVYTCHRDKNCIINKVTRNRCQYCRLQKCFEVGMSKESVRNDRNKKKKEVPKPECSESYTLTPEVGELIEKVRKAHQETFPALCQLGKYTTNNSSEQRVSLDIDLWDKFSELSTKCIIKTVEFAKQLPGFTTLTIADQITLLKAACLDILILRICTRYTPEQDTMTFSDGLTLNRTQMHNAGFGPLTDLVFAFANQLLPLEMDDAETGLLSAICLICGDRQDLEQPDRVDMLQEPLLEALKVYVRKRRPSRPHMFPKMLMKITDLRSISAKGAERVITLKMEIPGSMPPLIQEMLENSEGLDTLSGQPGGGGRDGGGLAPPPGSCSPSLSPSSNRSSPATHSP
The assay can be described thus: Binding affinity towards Retinoic acid receptor alpha.

Assay [5] has as its target T4, Retinoic acid receptor RXR-alpha (Homo sapiens) (UniProt P19793).
T4 sequence (whole entry): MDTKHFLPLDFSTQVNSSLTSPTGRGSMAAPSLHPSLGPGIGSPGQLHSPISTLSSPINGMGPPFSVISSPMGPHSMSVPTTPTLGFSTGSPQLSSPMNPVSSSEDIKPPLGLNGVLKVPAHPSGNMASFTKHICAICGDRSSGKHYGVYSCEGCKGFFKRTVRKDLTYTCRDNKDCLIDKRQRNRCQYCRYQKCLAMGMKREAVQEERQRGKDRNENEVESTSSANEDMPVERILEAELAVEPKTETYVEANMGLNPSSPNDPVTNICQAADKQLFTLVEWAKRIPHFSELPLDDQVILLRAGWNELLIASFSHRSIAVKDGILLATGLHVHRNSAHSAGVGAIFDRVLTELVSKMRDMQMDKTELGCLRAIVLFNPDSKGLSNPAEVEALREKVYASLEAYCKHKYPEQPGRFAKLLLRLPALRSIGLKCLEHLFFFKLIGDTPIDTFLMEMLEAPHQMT
The assay is described as follows: Evaluated for RXR-alpha functional transcriptional activation; NA means not active at 1 uM.

The subject of assay [6] is F9. The assay is described as follows: Compound was tested for its ability to induce differentiation of F9 cells as estimated by plasminogen activator secretion (PA); NA = Not active. The format is functional, cell-based, Mus musculus.

Activity calls are given as the source filed them. The calls are words filed in the database; no cut-off is given here.

For `O=C(O)c1ccc2c(c1)OCC(c1ccc(O)c(C34C[C@H]5C[C@@H](C3)C[C@@H](C4)C5)c1)=C2`, the AC50 in assay [1] is 0.107 µM. The inhibition constant Ki in assay [2] is 0.148 µM; in assay [3], above 3 µM; in assay [4], 0.821 µM. Moreover, in assay [5], the result was inactive.

In the case of `CC(C)(C)c1cc(-c2ccc3cc(C(=O)O)ccc3c2)ccc1O`, the AC50 result in assay [6] was “Not Active”. Besides, the inhibition constant (Ki) in assay [3] and in assay [4] was above 3 µM in each case. Further, in assay [5], the outcome was inactive.

With `COc1ccc(-c2ccc3cc(C(=O)O)ccc3c2)cc1C12CC3CC(CC(C3)C1)C2`, the result in assay [5] was inactive.

For the compound `CC1(C)CCC(C)(C)c2cc(C3COc4cc(C(=O)O)ccc4C3)ccc21` (centres undefined), the half-maximal activity concentration (AC50) in assay [1] was 0.3 µM. Also, the Ki in assay [2] worked out at 1.04 µM; in assay [3] it was 0.09 µM; in assay [4], 5.79 µM. In addition, in assay [5], the outcome was inactive.

Regarding `CC(C)(C)c1cc(C2=Cc3ccc(C(=O)O)cc3OC2)cc(C(C)(C)C)c1O`, the AC50 in assay [1] was 0.305 µM. Besides, the inhibition constant (Ki) is 0.531 µM in assay [2] and above 3 µM in assay [3]. Moreover, in assay [5], the result was inactive.

Regarding `CC(C)(C)c1cc(C2=Cc3ccc(C(=O)O)cc3OC2)ccc1O`, the AC50 result in assay [6] is listed as “Not Active”. The inhibition constant Ki in assay [2], in assay [3] and in assay [4] was above 3 µM each time. Further, the result in assay [5] was inactive.

Consider `COc1ccc(C2=Cc3ccc(C(=O)O)cc3OC2)cc1C12C[C@H]3C[C@@H](C1)C[C@@H](C2)C3`, for which the Ki was found to be 0.174 µM in assay [2], 0.071 µM in assay [3] and 0.764 µM in assay [4]. For the same compound, the outcome in assay [5] was inactive.

`CC1(C)CCC(C)(C)c2cc(C3=Cc4ccc(C(=O)O)cc4OC3)ccc21`: the concentration at half-maximal activity (AC50) in assay [1] was 0.058 µM. Moreover, the inhibition constant (Ki) in assay [2] turned out to be 0.019 µM; in assay [3], 0.036 µM; in assay [4], 0.487 µM. In addition, the result in assay [5] was inactive.

Regarding `CC1(C)CCC(C)(C)c2cc(-c3ccc4cc(C(=O)O)ccc4c3)ccc21`, the result in assay [5] was inactive.

In general, AC50 refers to the midpoint of the concentration-response curve, whichever way the signal moves. Usually Ki stands for a dissociation constant, usually derived from enzyme kinetics or from competition with a known ligand. Lower therefore signals tighter binding.

Values taken from ChEMBL document CHEMBL1150002, “Synthesis and biological activities of new heterocyclic aromatic retinoids” (Bioorg Med Chem Lett, 1997).
